Source: PubChem BioAssay (NCI)
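1) Cells in 96-well plates. 2) Compound, 48 h, 5 concentrations. 3) Linear interpolation between surrounding doses. 4) Unreached endpoint = highest concentration. GI50: concentration for 50% inhibition of growth. TGI is the concentration that stops growth completely.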

What was measured:
Test in all cases: NCI-60 cell line screen, 48 h
HCT-15 colon = tested on: HCT-15 colon
RPMI-8226 leukemia = tested on: RPMI-8226 leukemia
PC-3 prostate = tested on: PC-3 prostate
NCI-H23 lung = tested on: NCI-H23 lung
786-0 renal = tested on: 786-0 renal
MALME-3M melanoma = tested on: MALME-3M melanoma
UACC-62 melanoma = tested on: UACC-62 melanoma
CAKI-1 renal = tested on: CAKI-1 renal
OVCAR-8 ovarian = tested on: OVCAR-8 ovarian
CCRF-CEM leukemia = tested on: CCRF-CEM leukemia
SW-620 colon = tested on: SW-620 colon
K-562 leukemia = tested on: K-562 leukemia
TK-10 renal = tested on: TK-10 renal
EKVX NSCLC = tested on: EKVX NSCLC
SK-OV-3 ovarian = tested on: SK-OV-3 ovarian
HOP-62 NSCLC = tested on: HOP-62 NSCLC
MDA-N = tested on: MDA-N
IGROV1 ovarian = tested on: IGROV1 ovarian
KM12 colon = tested on: KM12 colon
HT29 colon = tested on: HT29 colon
LOX IMVI melanoma = tested on: LOX IMVI melanoma
M14 melanoma = tested on: M14 melanoma
HL-60(TB) leukemia = tested on: HL-60(TB) leukemia
MDA-MB-435 = tested on: MDA-MB-435
COLO 205 colon = tested on: COLO 205 colon
T-47D breast = tested on: T-47D breast
SK-MEL-5 melanoma = tested on: SK-MEL-5 melanoma
SN12C renal = tested on: SN12C renal
HOP-92 NSCLC = tested on: HOP-92 NSCLC
MOLT-4 leukemia = tested on: MOLT-4 leukemia
SK-MEL-28 melanoma = tested on: SK-MEL-28 melanoma
OVCAR-4 ovarian = tested on: OVCAR-4 ovarian
MDA-MB-231 breast = tested on: MDA-MB-231 breast
SNB-75 CNS = tested on: SNB-75 CNS
SF-268 CNS = tested on: SF-268 CNS
MCF7 breast = tested on: MCF7 breast
HCC-2998 colon = tested on: HCC-2998 colon
DU-145 prostate = tested on: DU-145 prostate
RXF 393 renal = tested on: RXF 393 renal
A549 NSCLC = tested on: A549 NSCLC
SF-295 CNS = tested on: SF-295 CNS
SR leukemia = tested on: SR leukemia
UACC-257 melanoma = tested on: UACC-257 melanoma
UO-31 renal = tested on: UO-31 renal
NCI-H226 lung = tested on: NCI-H226 lung
OVCAR-3 ovarian = tested on: OVCAR-3 ovarian
HS 578T breast = tested on: HS 578T breast
BT-549 breast = tested on: BT-549 breast
ACHN renal = tested on: ACHN renal
NCI-H460 lung = tested on: NCI-H460 lung
A498 renal = tested on: A498 renal
SF-539 CNS = tested on: SF-539 CNS
SNB-19 CNS = tested on: SNB-19 CNS
NCI-H522 lung = tested on: NCI-H522 lung
NCI/ADR-RES ovarian = tested on: NCI/ADR-RES ovarian
HCT-116 colon = tested on: HCT-116 colon
U251 CNS = tested on: U251 CNS
SK-MEL-2 melanoma = tested on: SK-MEL-2 melanoma
OVCAR-5 ovarian = tested on: OVCAR-5 ovarian

CCOC(=O)N1CCC2C(=C(C)C(C)C3=C2C(=O)c2ccccc2C3=O)C1 (centres undefined)
TGI (HCT-15 colon): > 10 µM | TGI (RPMI-8226 leukemia): > 10 µM | TGI (PC-3 prostate): > 10 µM | TGI (NCI-H23 lung): > 10 µM | TGI (786-0 renal): > 10 µM | TGI (MALME-3M melanoma): 6.77 µM | TGI (UACC-62 melanoma): > 10 µM | TGI (CAKI-1 renal): > 10 µM | TGI (OVCAR-8 ovarian): > 10 µM | TGI (CCRF-CEM leukemia): > 10 µM | TGI (SW-620 colon): > 10 µM | TGI (K-562 leukemia): > 10 µM | TGI (TK-10 renal): > 10 µM | TGI (EKVX NSCLC): > 10 µM | TGI (SK-OV-3 ovarian): > 10 µM | TGI (HOP-62 NSCLC): > 10 µM | TGI (MDA-N): > 10 µM | TGI (IGROV1 ovarian): > 10 µM | TGI (KM12 colon): > 10 µM | TGI (HT29 colon): > 10 µM | TGI (LOX IMVI melanoma): > 10 µM | TGI (M14 melanoma): > 10 µM | TGI (HL-60(TB) leukemia): 5.15 µM | TGI (MDA-MB-435): 4.53 µM | TGI (COLO 205 colon): > 10 µM | TGI (T-47D breast): > 10 µM | TGI (SK-MEL-5 melanoma): 4.27 µM | TGI (SN12C renal): > 10 µM | TGI (HOP-92 NSCLC): > 10 µM | TGI (MOLT-4 leukemia): > 10 µM | TGI (SK-MEL-28 melanoma): > 10 µM | TGI (OVCAR-4 ovarian): > 10 µM | TGI (MDA-MB-231 breast): > 10 µM | TGI (SNB-75 CNS): > 10 µM | TGI (SF-268 CNS): > 10 µM | TGI (MCF7 breast): > 10 µM | TGI (HCC-2998 colon): > 10 µM | TGI (DU-145 prostate): > 10 µM | TGI (RXF 393 renal): > 10 µM | TGI (A549 NSCLC): > 10 µM | TGI (SF-295 CNS): > 10 µM | TGI (SR leukemia): > 10 µM | TGI (UACC-257 melanoma): > 10 µM

COC(=O)c1ccc2[nH]c(O)c(C(=Nc3ccc(N(C)C(=O)CN4CCN(C)CC4)cc3)c3cccc(OC)c3)c2c1
GI50 (HCT-15 colon): 1.9 µM | TGI (HCT-15 colon): 7.04 µM | GI50 (RPMI-8226 leukemia): 1.02 µM | TGI (RPMI-8226 leukemia): 3.55 µM | GI50 (UO-31 renal): 1.54 µM | TGI (UO-31 renal): 4.05 µM | GI50 (PC-3 prostate): 0.631 µM | TGI (PC-3 prostate): 5.87 µM | GI50 (NCI-H226 lung): 1.08 µM | TGI (NCI-H226 lung): 5.93 µM | GI50 (NCI-H23 lung): 1.05 µM | TGI (NCI-H23 lung): 3.48 µM | GI50 (786-0 renal): 0.825 µM | TGI (786-0 renal): 2.38 µM | GI50 (OVCAR-3 ovarian): 0.96 µM | TGI (OVCAR-3 ovarian): 2.57 µM | GI50 (MALME-3M melanoma): 1.49 µM | TGI (MALME-3M melanoma): 2.96 µM | GI50 (HS 578T breast): 0.213 µM | TGI (HS 578T breast): 4.13 µM | GI50 (UACC-62 melanoma): 2.14 µM | TGI (UACC-62 melanoma): 4.52 µM | GI50 (CAKI-1 renal): 0.373 µM | TGI (CAKI-1 renal): 3.38 µM | GI50 (BT-549 breast): 1.39 µM | TGI (BT-549 breast): 3.47 µM | GI50 (OVCAR-8 ovarian): 1.22 µM | TGI (OVCAR-8 ovarian): 9.91 µM | GI50 (ACHN renal): 2.14 µM | TGI (ACHN renal): 7.99 µM | GI50 (NCI-H460 lung): 1.41 µM | TGI (NCI-H460 lung): 3.44 µM | GI50 (A498 renal): 1.26 µM | TGI (A498 renal): 2.61 µM | GI50 (CCRF-CEM leukemia): 0.447 µM | TGI (CCRF-CEM leukemia): 6.83 µM | GI50 (SW-620 colon): 0.429 µM | TGI (SW-620 colon): 4.95 µM | GI50 (SF-539 CNS): 0.463 µM | TGI (SF-539 CNS): 1.69 µM | GI50 (K-562 leukemia): 0.107 µM | TGI (K-562 leukemia): 4.37 µM | GI50 (TK-10 renal): 1.61 µM | TGI (TK-10 renal): 3.78 µM | GI50 (SNB-19 CNS): 1.64 µM | TGI (SNB-19 CNS): 8.4 µM | GI50 (EKVX NSCLC): 2.04 µM | TGI (EKVX NSCLC): 6.77 µM | GI50 (SK-OV-3 ovarian): 0.198 µM | TGI (SK-OV-3 ovarian): 1.88 µM | GI50 (HOP-62 NSCLC): 1.21 µM | TGI (HOP-62 NSCLC): 4.78 µM | GI50 (NCI-H522 lung): 1.03 µM | TGI (NCI-H522 lung): 3.89 µM | GI50 (IGROV1 ovarian): 0.191 µM | TGI (IGROV1 ovarian): 2.19 µM | GI50 (NCI/ADR-RES ovarian): 12.4 µM | TGI (NCI/ADR-RES ovarian): 34 µM | GI50 (KM12 colon): 0.0419 µM | TGI (KM12 colon): 4.49 µM | GI50 (HCT-116 colon): 0.21 µM | TGI (HCT-116 colon): 4.66 µM | GI50 (HT29 colon): 0.89 µM | TGI (HT29 colon): 13.1 µM | GI50 (LOX IMVI melanoma): 0.654 µM | TGI (LOX IMVI melanoma): 2.3 µM | GI50 (M14 melanoma): 0.921 µM | TGI (M14 melanoma): 2.41 µM | GI50 (HL-60(TB) leukemia): 0.583 µM | TGI (HL-60(TB) leukemia): 2.51 µM | GI50 (MDA-MB-435): 1.48 µM | TGI (MDA-MB-435): 3.86 µM | GI50 (COLO 205 colon): 0.395 µM | TGI (COLO 205 colon): 1.8 µM | GI50 (T-47D breast): 1.28 µM | TGI (T-47D breast): 9.34 µM | GI50 (SK-MEL-5 melanoma): 1.43 µM | TGI (SK-MEL-5 melanoma): 2.78 µM | GI50 (SN12C renal): 0.346 µM | TGI (SN12C renal): 10.8 µM | GI50 (U251 CNS): 1.15 µM | TGI (U251 CNS): 3 µM | GI50 (HOP-92 NSCLC): 2.98 µM | TGI (HOP-92 NSCLC): 10.9 µM | GI50 (MOLT-4 leukemia): 0.392 µM | TGI (MOLT-4 leukemia): 3.26 µM | GI50 (SK-MEL-2 melanoma): 1.89 µM | TGI (SK-MEL-2 melanoma): 4.51 µM | GI50 (SK-MEL-28 melanoma): 1.71 µM | TGI (SK-MEL-28 melanoma): 3.77 µM | GI50 (OVCAR-4 ovarian): 0.96 µM | TGI (OVCAR-4 ovarian): 2.84 µM | GI50 (MDA-MB-231 breast): 1.31 µM | TGI (MDA-MB-231 breast): 3.27 µM | GI50 (SNB-75 CNS): 0.112 µM | TGI (SNB-75 CNS): 1.78 µM | GI50 (OVCAR-5 ovarian): 2.29 µM | TGI (OVCAR-5 ovarian): 5.46 µM | GI50 (SF-268 CNS): 1.48 µM | TGI (SF-268 CNS): 4.08 µM | GI50 (MCF7 breast): 0.353 µM | TGI (MCF7 breast): 1.93 µM | GI50 (HCC-2998 colon): 1.65 µM | TGI (HCC-2998 colon): 4.98 µM | GI50 (DU-145 prostate): 1.89 µM | TGI (DU-145 prostate): 9.32 µM | GI50 (RXF 393 renal): 0.549 µM | TGI (RXF 393 renal): 1.87 µM | GI50 (A549 NSCLC): 1.39 µM | TGI (A549 NSCLC): 6.42 µM | GI50 (SF-295 CNS): 1.12 µM | TGI (SF-295 CNS): 2.63 µM | GI50 (SR leukemia): 0.231 µM | TGI (SR leukemia): 4.52 µM | GI50 (UACC-257 melanoma): 2.01 µM | TGI (UACC-257 melanoma): 4.64 µM
